Assay results as given in PubChem BioAssay (NCI).
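Method: 48-hour compound exposure of cells in 96-well plates, five concentrations, linear interpolation of endpoints. At the GI50, growth is halved. Definition used: TGI = concentration required for complete inhibition of growth.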

Legend:
Experiment in all cases: NCI tumour cell line growth inhibition, 48 h
MCF7 breast = tested on: MCF7 breast
U251 CNS = tested on: U251 CNS
MOLT-4 leukemia = tested on: MOLT-4 leukemia
SF-268 CNS = tested on: SF-268 CNS
SK-MEL-28 melanoma = tested on: SK-MEL-28 melanoma
HCT-116 colon = tested on: HCT-116 colon
M14 melanoma = tested on: M14 melanoma
UACC-62 melanoma = tested on: UACC-62 melanoma
CCRF-CEM leukemia = tested on: CCRF-CEM leukemia
OVCAR-8 ovarian = tested on: OVCAR-8 ovarian
786-0 renal = tested on: 786-0 renal
SN12C renal = tested on: SN12C renal
HL-60(TB) leukemia = tested on: HL-60(TB) leukemia
COLO 205 colon = tested on: COLO 205 colon
NCI/ADR-RES ovarian = tested on: NCI/ADR-RES ovarian
BT-549 breast = tested on: BT-549 breast
SK-OV-3 ovarian = tested on: SK-OV-3 ovarian
HCT-15 colon = tested on: HCT-15 colon
MALME-3M melanoma = tested on: MALME-3M melanoma
SK-MEL-5 melanoma = tested on: SK-MEL-5 melanoma
RPMI-8226 leukemia = tested on: RPMI-8226 leukemia
SF-539 CNS = tested on: SF-539 CNS
SK-MEL-2 melanoma = tested on: SK-MEL-2 melanoma
KM12 colon = tested on: KM12 colon
LOX IMVI melanoma = tested on: LOX IMVI melanoma
EKVX NSCLC = tested on: EKVX NSCLC
HS 578T breast = tested on: HS 578T breast
OVCAR-5 ovarian = tested on: OVCAR-5 ovarian
UO-31 renal = tested on: UO-31 renal
IGROV1 ovarian = tested on: IGROV1 ovarian
MDA-MB-435 = tested on: MDA-MB-435
DU-145 prostate = tested on: DU-145 prostate
MDA-MB-231 breast = tested on: MDA-MB-231 breast
SNB-19 CNS = tested on: SNB-19 CNS
A549 NSCLC = tested on: A549 NSCLC
OVCAR-3 ovarian = tested on: OVCAR-3 ovarian
OVCAR-4 ovarian = tested on: OVCAR-4 ovarian
A498 renal = tested on: A498 renal
TK-10 renal = tested on: TK-10 renal
UACC-257 melanoma = tested on: UACC-257 melanoma
CAKI-1 renal = tested on: CAKI-1 renal
HOP-62 NSCLC = tested on: HOP-62 NSCLC
HCC-2998 colon = tested on: HCC-2998 colon
HT29 colon = tested on: HT29 colon
SW-620 colon = tested on: SW-620 colon
ACHN renal = tested on: ACHN renal
SF-295 CNS = tested on: SF-295 CNS
RXF 393 renal = tested on: RXF 393 renal
HOP-92 NSCLC = tested on: HOP-92 NSCLC
PC-3 prostate = tested on: PC-3 prostate
K-562 leukemia = tested on: K-562 leukemia
T-47D breast = tested on: T-47D breast
SNB-75 CNS = tested on: SNB-75 CNS
NCI-H460 lung = tested on: NCI-H460 lung
NCI-H23 lung = tested on: NCI-H23 lung
NCI-H226 lung = tested on: NCI-H226 lung
SR leukemia = tested on: SR leukemia
NCI-H522 lung = tested on: NCI-H522 lung

## Cc1cccc(NC(=O)CCc2ccc(N3C(N)=NC(N)=NC3(C)C)cc2)c1
MCF7 breast
  GI50: 1.24 µM
  TGI: > 100 µM
U251 CNS
  GI50: 0.675 µM
  TGI: > 100 µM
MOLT-4 leukemia
  GI50: 2.7 µM
  TGI: > 100 µM
SF-268 CNS
  GI50: 0.547 µM
  TGI: > 100 µM
SK-MEL-28 melanoma
  GI50: 11.8 µM
  TGI: > 100 µM
HCT-116 colon
  GI50: 0.632 µM
  TGI: > 100 µM
M14 melanoma
  GI50: > 29.2 µM
  TGI: > 100 µM
UACC-62 melanoma
  GI50: 2.37 µM
  TGI: > 100 µM
CCRF-CEM leukemia
  GI50: 1.07 µM
  TGI: > 100 µM
OVCAR-8 ovarian
  GI50: 13.6 µM
  TGI: > 100 µM
786-0 renal
  GI50: 18.9 µM
  TGI: > 100 µM
SN12C renal
  GI50: 0.575 µM
  TGI: > 100 µM
HL-60(TB) leukemia
  GI50: 0.641 µM
  TGI: > 100 µM
COLO 205 colon
  GI50: 7.8 µM
  TGI: > 100 µM
NCI/ADR-RES ovarian
  GI50: > 100 µM
  TGI: > 100 µM
BT-549 breast
  GI50: 10.9 µM
  TGI: > 100 µM
SK-OV-3 ovarian
  GI50: > 62.9 µM
  TGI: > 100 µM
HCT-15 colon
  GI50: > 100 µM
  TGI: > 100 µM
MALME-3M melanoma
  GI50: > 46.9 µM
  TGI: > 100 µM
SK-MEL-5 melanoma
  GI50: 2.48 µM
  TGI: > 100 µM
RPMI-8226 leukemia
  GI50: 3.17 µM
  TGI: > 100 µM
SF-539 CNS
  GI50: 1.93 µM
  TGI: > 100 µM
SK-MEL-2 melanoma
  GI50: > 33.6 µM
  TGI: > 100 µM
KM12 colon
  GI50: 1.24 µM
  TGI: > 100 µM
LOX IMVI melanoma
  GI50: 0.654 µM
  TGI: > 100 µM
EKVX NSCLC
  TGI: > 100 µM
HS 578T breast
  GI50: > 52 µM
  TGI: > 100 µM
OVCAR-5 ovarian
  GI50: > 37.2 µM
  TGI: > 100 µM
UO-31 renal
  GI50: > 100 µM
  TGI: > 100 µM
IGROV1 ovarian
  GI50: 0.603 µM
  TGI: > 100 µM
MDA-MB-435
  GI50: 0.56 µM
  TGI: > 100 µM
DU-145 prostate
  GI50: 0.941 µM
  TGI: > 100 µM
MDA-MB-231 breast
  GI50: > 65.2 µM
  TGI: > 100 µM
SNB-19 CNS
  GI50: 8.35 µM
  TGI: > 100 µM
A549 NSCLC
  GI50: 0.188 µM
  TGI: > 29 µM
OVCAR-3 ovarian
  GI50: 6.76 µM
  TGI: > 100 µM
OVCAR-4 ovarian
  GI50: 18.4 µM
  TGI: > 100 µM
A498 renal
  GI50: > 65.6 µM
  TGI: > 100 µM
TK-10 renal
  GI50: 18.2 µM
  TGI: > 100 µM
UACC-257 melanoma
  GI50: 28.1 µM
  TGI: > 100 µM
CAKI-1 renal
  GI50: 97.3 µM
  TGI: > 100 µM
HOP-62 NSCLC
  GI50: 16.9 µM
  TGI: > 100 µM
HCC-2998 colon
  GI50: 3.34 µM
  TGI: > 100 µM
HT29 colon
  GI50: 0.364 µM
  TGI: > 100 µM
SW-620 colon
  GI50: 1.13 µM
  TGI: > 100 µM
ACHN renal
  GI50: > 100 µM
  TGI: > 100 µM
SF-295 CNS
  GI50: 2.56 µM
  TGI: > 76.3 µM
RXF 393 renal
  GI50: > 42.1 µM
  TGI: > 100 µM
HOP-92 NSCLC
  GI50: 26 µM
  TGI: > 100 µM
PC-3 prostate
  GI50: 0.089 µM
  TGI: > 66.4 µM
K-562 leukemia
  GI50: 0.715 µM
  TGI: > 100 µM
T-47D breast
  GI50: 38.6 µM
  TGI: > 100 µM
SNB-75 CNS
  TGI: > 100 µM
NCI-H460 lung
  GI50: 0.454 µM
  TGI: > 100 µM
NCI-H23 lung
  GI50: 6.32 µM
  TGI: > 100 µM
NCI-H226 lung
  GI50: > 64.7 µM
  TGI: > 100 µM

## Cc1nc(-c2cccc(Nc3nc(-c4ccc(Cl)cc4)cs3)c2)cs1
MCF7 breast
  GI50: 14.7 µM
  TGI: 43.7 µM
U251 CNS
  GI50: 8.34 µM
  TGI: 16.4 µM
MOLT-4 leukemia
  GI50: 30.9 µM
  TGI: > 50 µM
SF-268 CNS
  GI50: 10.4 µM
  TGI: 24.2 µM
SK-MEL-28 melanoma
  GI50: 9.6 µM
  TGI: 21.3 µM
HCT-116 colon
  GI50: 11.6 µM
  TGI: 27.5 µM
M14 melanoma
  GI50: 9.72 µM
  TGI: 19.6 µM
UACC-62 melanoma
  GI50: 6.83 µM
  TGI: 15 µM
OVCAR-8 ovarian
  GI50: 10.1 µM
  TGI: 23.2 µM
786-0 renal
  GI50: 10.9 µM
  TGI: 21.8 µM
SN12C renal
  GI50: 9.3 µM
  TGI: 17.1 µM
HL-60(TB) leukemia
  GI50: 19.8 µM
  TGI: > 50 µM
COLO 205 colon
  GI50: 11.9 µM
  TGI: 31.1 µM
NCI/ADR-RES ovarian
  GI50: 5.14 µM
  TGI: 12.2 µM
BT-549 breast
  GI50: 10.7 µM
  TGI: 21.6 µM
SK-OV-3 ovarian
  GI50: 11.9 µM
  TGI: 25.4 µM
HCT-15 colon
  GI50: 7.83 µM
  TGI: 18.6 µM
SK-MEL-5 melanoma
  GI50: 10.5 µM
  TGI: 19.7 µM
RPMI-8226 leukemia
  GI50: 21.3 µM
  TGI: > 50 µM
SK-MEL-2 melanoma
  GI50: 8.82 µM
  TGI: 18.9 µM
KM12 colon
  GI50: 8.4 µM
  TGI: 20 µM
LOX IMVI melanoma
  GI50: 7.3 µM
  TGI: 13.9 µM
EKVX NSCLC
  GI50: 8.6 µM
  TGI: 17.2 µM
SR leukemia
  GI50: 8.31 µM
  TGI: 27 µM
HS 578T breast
  GI50: 14.1 µM
  TGI: 34.9 µM
UO-31 renal
  GI50: 10 µM
  TGI: 21.1 µM
IGROV1 ovarian
  GI50: 15.9 µM
  TGI: 32.7 µM
MDA-MB-435
  GI50: 10.4 µM
  TGI: 27.4 µM
NCI-H522 lung
  GI50: 8.8 µM
  TGI: 19 µM
DU-145 prostate
  GI50: 9.73 µM
  TGI: 18.4 µM
MDA-MB-231 breast
  GI50: 11.1 µM
  TGI: 23.3 µM
SNB-19 CNS
  GI50: 12.8 µM
  TGI: 28.9 µM
A549 NSCLC
  GI50: 8.9 µM
  TGI: 24.7 µM
OVCAR-3 ovarian
  GI50: 10.5 µM
  TGI: 23.1 µM
A498 renal
  GI50: 12.3 µM
  TGI: 20.9 µM
TK-10 renal
  GI50: 8.31 µM
  TGI: 17.8 µM
UACC-257 melanoma
  GI50: 8.76 µM
  TGI: 18.1 µM
CAKI-1 renal
  GI50: 11.8 µM
  TGI: 24.6 µM
HOP-62 NSCLC
  GI50: 12.3 µM
  TGI: 24.5 µM
SW-620 colon
  GI50: 11.9 µM
  TGI: 27 µM
ACHN renal
  GI50: 10.1 µM
  TGI: 17.5 µM
SF-295 CNS
  GI50: 10.6 µM
  TGI: 28.5 µM
RXF 393 renal
  GI50: 9.63 µM
  TGI: 19 µM
HOP-92 NSCLC
  GI50: 17.1 µM
  TGI: > 50 µM
PC-3 prostate
  GI50: 8.96 µM
  TGI: 21.2 µM
K-562 leukemia
  GI50: 8.06 µM
  TGI: 21.4 µM
NCI-H460 lung
  GI50: 12.4 µM
  TGI: 31.6 µM
NCI-H23 lung
  GI50: 1.27 µM
  TGI: 10.9 µM
